# Measured values taken from US20050265997A1, “Cancer treatment method by inhibiting MAGE gene expression or function” (WISCONSIN ALUMNI RESEARCH FOUNDATION, priority 2004, published 2005).
# How the values were obtained:
# Type in all cases: cell-based, human
# [1] = tested on: MAGE-A protein in HMC-1.1 cells; test: Western blot of MAGE-A protein after STI 571; conditions: 12 and 24 hours after administration of STI 571
# [2] = tested on: MAGE mRNA in HMC-1.1 cell; test: Genechip array analysis of MAGE mRNA after STI 571; conditions: HMC-1.1 cells, 1 μM STI571 for 4 hours, Means +/- SEM
# Excerpt: (§1) The human mast cell line HMC-1 is dependent on the expression of mutant KIT protein which is constitutively activated, and inhibition of activated KIT with a drug induces apoptosis of HMC-1 cells (Ma et al., 2002, The c-KIT mutation causing human mastocytosis is resistant to STI571 and other KIT kinase inhibitors; kinases with enzymatic site mutations show different inhibitor sensitivity profiles than wild-type kinases and those with regulatory-type mutations. Blood 99:1741-4.). However, the mechanism by which KIT inhibitors cause apoptosis in these cells is unknown. To look for genes whose products could regulate and transduce KIT related signals controlling apoptosis, we used gene chip array analysis to study changes in the mRNA levels of specific genes following induction of apoptosis.
# HMC-1.1 cells were divided into triplicate cultures of two groups: a control group treated with PBS, and an experimental group treated with 1 μM STI571, a KIT inhibitor for 4 hours. A quarter of the cells were used for Western blots to confirm the KIT inhibition, and the rest were used for total RNA isolation for genechip analysis. We used Affymetrix Genechip human Genome U133A chips. The arrays were hybridized and scanned and the data were analyzed using dChip analysis software. The statistical significance of differences in mRNA expression levels between STI571 treated and control cells were assessed by t-test based on data from three independent replicates. Values are expressed as Means +/−SEM, and p<0.05 was considered statistically significant.
# HMC-1.1 cells = test: Induction of apoptosis by STI 571; conditions: following decrease of MAGE mRNA and protein
# Excerpt: as §1
smiles,measurement,setting,value
Cc1ccc(NC(=O)c2ccc(CN3CCN(C)CC3)cc2)cc1Nc1nccc(-c2cccnc2)n1 [STI 571],MAGE-A protein level (Western blot),[1],down-regulation of MAGE-A protein
same,"mRNA level, melanoma antigen, family A, 1 (NM_004988)","[2]; three replicates, PBS control 757 ± 29",562 ± 33
same,"mRNA level, melanoma antigen, family A, 12 (BC003408)",[2]; PBS control 513 ± 29,410 ± 26
same,"mRNA level, melanoma antigen, family E, 1 (NM_016249)",[2]; PBS control 514 ± 13,405 ± 21
same,"mRNA level, melanoma antigen, family A, 5 (AI200443)",[2]; PBS control 520 ± 28,414 ± 28
same,"mRNA level, melanoma antigen, family A, 6 (U10691)",[2]; PBS control 896 ± 54,712 ± 42
same,"mRNA level, melanoma antigen, family A, 3 (BC000340)",[2]; PBS control 977 ± 67,779 ± 32
same,apoptosis of the cells,HMC-1.1 cells,followed by apoptosis of the cells
